In patent US9840478B2 (MERCK SHARP & DOHME CORP., priority 2013, dated 2017) one finds IC50 data, which are given here for 22 compounds.

SMILES strings stand for the structures.

For this test, the system named is HIV-1 (H9IIIB strain). Kind of test: Cell-based HIV infection assay using a reporter (Cell-Based), MT4-GFP cells. The conditions noted are these: Human immunodeficiency virus 1, MT4-GFP cells infected with HIV-1 H9IIIB; 50% normal human serum; mean of at least two independent experiments; read-out: Cell-based IP. Summed up:
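IC50 from 4-parameter dose-response of % viral growth inhibition, using the 48 h/24 h infected-cell ratio scaled between DMSO and a protease/integrase/NNRTI triple-drug control. Assay used MT4 cells with HIV-LTR-GFP reporter, pre-infected 24 h with HIV-1 H9IIIB, in 50% normal human serum.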
For `CC[C@@H]1CNC[C@H](CCc2c(F)cccc2NC(=O)[C@@H](N)[C@@H](c2ccc(F)cc2)c2cc(F)cc(F)c2)N1S(C)(=O)=O` [Example 263, (βS)-β-(3,5-difluorophenyl)-N-(2-{2-[(2S,6R)-6-ethyl-1-(methylsulfonyl)piperazin-2-yl]ethyl}-3-fluorophenyl)-4-fluoro-L-phenylalaninamide], the IC50 came to 77 nM.

Consider `C[C@@H]1CNC[C@H](CCc2c(F)cccc2NC(=O)[C@@H](N)[C@@H](c2ccc(Cl)cc2)C2CCOCC2)N1S(=O)(=O)c1ccc(C(F)F)cc1` [Example 264, (βR)-4-chloro-N-(2-{2-[(2S,6R)-1-{[4-(difluoromethyl)phenyl]sulfonyl}-6-methylpiperazin-2-yl]ethyl}-3-fluorophenyl)-β-(tetrahydro-2H-pyran-4-yl)-L-phenylalaninamide], for which the IC50 is 69 nM.

Take `CC[C@@H]1CNC[C@H](CCc2c(F)cccc2NC(=O)[C@@H](N)[C@@H](c2ccc(Cl)cc2)C2CCOCC2)N1S(C)(=O)=O` [Example 265, (βR)-4-chloro-N-(2-{2-[(2S,6R)-6-ethyl-1-(methylsulfonyl)piperazin-2-yl]ethyl}-3-fluorophenyl)-β-(tetrahydro-2H-pyran-4-yl)-L-phenylalaninamide]: the IC50 was determined as 260 nM.

As to `COC(=O)NC(C(=O)Nc1cccc(F)c1CC[C@H]1CNC[C@@H](C)N1S(=O)(=O)c1ccc(C(F)F)cc1)[C@@H](c1ccc(Cl)cc1)C1CCOCC1` (stereo partly shown) [Example 266], the IC50 worked out at 26 nM.

With `CC[C@@H]1CNC[C@H](CCc2c(F)cccc2NC(=O)[C@@H](NC(=O)OC)[C@@H](c2ccc(Cl)cc2)C2CCOCC2)N1S(=O)(=O)c1ccccc1` [Example 267, methyl ((1R,2S)-1-(4-chlorophenyl)-3-((2-(2-((2S,6R)-6-ethyl-1-(phenylsulfonyl)piperazin-2-yl)ethyl)-3-fluorophenyl)amino)-3-oxo-1-(tetrahydro-2H-pyran-4-yl)propan-2-yl)carbamate], the IC50 stood at 24 nM.

Regarding `CC[C@H]1CNC[C@H](CCc2c(F)cccc2NC(=O)[C@@H](NC(=O)OC)[C@@H](c2ccc(Cl)cc2)C2CCOCC2)N1S(=O)(=O)c1ccccc1` [Example 268, methyl ((1R,2S)-1-(4-chlorophenyl)-3-((2-(2-((2S,6S)-6-ethyl-1-(phenylsulfonyl)piperazin-2-yl)ethyl)-3-fluorophenyl)amino)-3-oxo-1-(tetrahydro-2H-pyran-4-yl)propan-2-yl) carbamate], the IC50 is 14 nM.

For `CC[C@H]1CNC[C@H](CCc2c(F)cccc2NC(=O)[C@@H](NC(=O)OC)[C@@H](c2ccc(F)cc2)c2cc(F)cc(F)c2)N1S(C)(=O)=O` [Example 269, (βS)-β-(3,5-difluorophenyl)-N-(2-{2-[(2S,6S)-6-ethyl-1-(methylsulfonyl)piperazin-2-yl]ethyl}-3-fluorophenyl)-4-fluoro-Nα-(methoxycarbonyl)-L-phenylalaninamide], the IC50 worked out at 9.9 nM.

Consider `CC[C@@H]1CNC[C@H](CCc2c(F)cccc2NC(=O)[C@@H](NC(=O)OC)[C@@H](c2ccc(F)cc2)c2cc(F)cc(F)c2)N1S(C)(=O)=O` [Example 270, (βS)-β-(3,5-difluorophenyl)-N-(2-{2-[(2S,6R)-6-ethyl-1-(methylsulfonyl)piperazin-2-yl]ethyl}-3-fluorophenyl)-4-fluoro-Nα-(methoxycarbonyl)-L-phenylalaninamide], for which the IC50 turned out to be 24 nM.

Take `CC(C)[C@H](c1ccc(Cl)cc1)[C@H](N)C(=O)Nc1cccc(F)c1CC[C@H]1CNC[C@H](C)N1S(=O)(=O)c1ccccc1Cl` [Example 271, (βR)-4-chloro-N-[2-(2-{(2S,6S)-1-[(2-chlorophenyl)sulfonyl]-6-methylpiperazin-2-yl}ethyl)-3-fluorophenyl]-β-(1-methylethyl)-L-phenylalaninamide]: the IC50 was 1200 nM.

As to `COC(=O)N[C@H](C(=O)Nc1cncc(F)c1CC[C@H]1CNC[C@H](C)N1S(=O)(=O)c1ccccc1Cl)[C@@H](c1ccc(F)cc1)c1cc(F)cc(F)c1` [Example 272, (βS)-N-[4-(2-{(2S,6S)-1-[(2-chlorophenyl)sulfonyl]-6-methylpiperazin-2-yl}ethyl)-5-fluoropyridin-3-yl]-β-(3,5-difluorophenyl)-4-fluoro-Nα-(methoxycarbonyl)-L-phenylalaninamide], the IC50 came to 49 nM.

`C[C@H]1CNC[C@H](CCc2c(F)cncc2NC(=O)[C@@H](N)[C@@H](c2ccc(Cl)cc2)C2CCOCC2)N1S(=O)(=O)c1ccc(Cl)cc1` [Example 273, (βR)-4-chloro-N-[4-(2-{(2S,6S)-1-[(4-chlorophenyl)sulfonyl]-6-methylpiperazin-2-yl}ethyl)-5-fluoropyridin-3-yl]-β-(tetrahydro-2H-pyran-4-yl)-L-phenylalaninamide]: the IC50 stood at 11 nM.

As to `COC(=O)N[C@H](C(=O)Nc1cncc(F)c1CC[C@H]1CNC[C@H](C)N1S(=O)(=O)c1ccccc1)[C@@H](c1ccc(Cl)cc1)C1CCOCC1` [Example 274, (βR)-4-chloro-N-(5-fluoro-4-{2-[(2S,6S)-6-methyl-1-(phenylsulfonyl)piperazin-2-yl]ethyl}pyridin-3-yl)-Nα-(methoxycarbonyl)-β-(tetrahydro-2H-pyran-4-yl)-L-phenylalaninamide], the IC50 is 22 nM.

For `COC(=O)N[C@H](C(=O)Nc1cccc(F)c1CC[C@H]1CNC[C@@H](C)N1S(=O)(=O)c1ccccc1)C1(c2ccc(Cl)cc2)CCOCC1` [Example 275, methyl {(1S)-1-[4-(4-chlorophenyl)tetrahydro-2H-pyran-4-yl]-2-[(3-fluoro-2-{2-[(2S,6R)-6-methyl-1-(phenylsulfonyl)piperazin-2-yl]ethyl}phenyl)amino]-2-oxoethyl}carbamate], the IC50 turned out to be 19 nM.

As for `COC(=O)N[C@H](C(=O)Nc1cccc(F)c1CC[C@H]1CNC[C@H](C)N1S(=O)(=O)c1ccccc1)C1(c2ccc(Cl)cc2)CCOCC1` [Example 276, methyl {(1S)-1-[4-(4-chlorophenyl)tetrahydro-2H-pyran-4-yl]-2-[(3-fluoro-2-{2-[(2S,6S)-6-methyl-1-(phenylsulfonyl)piperazin-2-yl]ethyl}phenyl)amino]-2-oxoethyl}carbamate], the IC50 was 9.1 nM.

Turning to `C[C@H]1CNC[C@H](CCc2c(F)cncc2NC(=O)[C@@H](N)[C@@H](c2ccc(Cl)cc2)C2CCOCC2)N1S(=O)(=O)c1ccccc1` [Example 277, (βR)-4-chloro-N-(5-fluoro-4-{2-[(2S,6S)-6-methyl-1-(phenylsulfonyl)piperazin-2-yl]ethyl}pyridin-3-yl)-β-(tetrahydro-2H-pyran-4-yl)-L-phenylalaninamide], the IC50 turned out to be 15 nM.

Regarding `C[C@H]1CNC[C@H](CCc2c(F)cccc2NC(=O)[C@@H](N)C2(c3cc(F)cc(F)c3)CCOCC2)N1S(=O)(=O)c1ccccc1` [Example 278, (2S)-2-amino-2-[4-(3,5-difluorophenyl)tetrahydro-hydro-2H-pyran-4-yl]-N-(3-fluoro-2-{2-[(2S,6S)-6-methyl-1-(phenylsulfonyl)piperazin-2-yl]ethyl}phenyl) ethanamide], the IC50 was 140 nM.

Regarding `COC(=O)N[C@H](C(=O)Nc1cncc(F)c1CC[C@H]1CNC[C@@H](C)N1S(=O)(=O)c1ccccc1)[C@@H](c1ccc(Cl)cc1)C1CCOCC1` [Example 279, (βR)-4-chloro-N-(5-fluoro-4-{2-[(2S,6R)-6-methyl-1-(phenylsulfonyl)piperazin-2-yl]ethyl}pyridin-3-yl)-Nα-(methoxycarbonyl)-β-(tetrahydro-2H-pyran-4-yl)-L-phenylalaninamide], the IC50 is 16 nM.

With `C[C@@H]1CNC[C@H](CCc2c(F)cncc2NC(=O)[C@@H](N)[C@@H](c2ccc(Cl)cc2)C2CCOCC2)N1S(=O)(=O)c1ccccc1` [Example 280, (βR)-4-chloro-N-(5-fluoro-4-{2-[(2S,6R)-6-methyl-1-(phenylsulfonyl)piperazin-2-yl]ethyl}pyridin-3-yl)-β-(tetrahydro-2H-pyran-4-yl)-L-phenylalaninamide], the IC50 came out at 16 nM.

Take `COC(=O)N[C@H](C(=O)Nc1cncc(F)c1CC[C@H]1CNC[C@@H](C)N1S(=O)(=O)c1ccc(Cl)cc1)[C@@H](c1ccc(Cl)cc1)C1CCOCC1` [Example 281, (βR)-4-chloro-N-[4-(2-{(2S,6R)-1-[(4-chlorophenyl)sulfonyl]-6-methylpiperazin-2-yl}ethyl)-5-fluoropyridin-3-yl]-Nα-(methoxycarbonyl)-β-(tetrahydro-2H-pyran-4-yl)-L-phenylalaninamide]: the IC50 was 13 nM.

Turning to `COC(=O)N[C@H](C(=O)Nc1cncc(F)c1CC[C@H]1CNC[C@H](C)N1S(=O)(=O)c1ccc(Cl)cc1)[C@@H](c1ccc(Cl)cc1)C1CCOCC1` [Example 282, (βR)-4-chloro-N-[4-(2-{(2S,6S)-1-[(4-chlorophenyl)sulfonyl]-6-methylpiperazin-2-yl}ethyl)-5-fluoropyridin-3-yl]-Nα-(methoxycarbonyl)-β-(tetrahydro-2H-pyran-4-yl)-L-phenylalaninamide], the IC50 stood at 11 nM.

With `COC(=O)N[C@H](C(=O)Nc1cccc(F)c1CC[C@H]1CNC[C@@H](C)N1S(=O)(=O)c1ccccc1)[C@@H](c1cc(F)cc(F)c1)C1CCOCC1` [Example 283, (βR)-3,5-difluoro-N-(3-fluoro-2-{2-[(2S,6R)-6-methyl-1-(phenylsulfonyl)piperazin-2-yl]ethyl}phenyl)-Nα-(methoxycarbonyl)-β-(tetrahydro-2H-pyran-4-yl)-L-phenylalaninamide], the IC50 is 14 nM.

Consider `C[C@@H]1CNC[C@H](CCc2c(F)cccc2NC(=O)[C@@H](N)[C@@H](c2cc(F)cc(F)c2)C2CCOCC2)N1S(=O)(=O)c1ccccc1` [Example 284, (βR)-3,5-difluoro-N-(3-fluoro-2-{2-[(2S,6R)-6-methyl-1-(phenylsulfonyl)piperazin-2-yl]ethyl}phenyl)-β-(tetrahydro-2H-pyran-4-yl)-L-phenylalaninamide], for which the IC50 turned out to be 40 nM.
